Assay results from publication PMC9774241, “Associating Biological Activity and Predicted Structure of Antimicrobial Peptides from Amphibians and Insects” (Antibiotics, 2022).
Values after ≈ are worked out from the molar mass of the structure shown. Where two headings read alike, the source gives them in different places. Residues, ends and D or L forms follow the SMILES beside them. No end group written: not given here.

Key:
Type in all cases: cell-based
[1] = tested on: Salmonella enterica serovar Enteritidis (human clinical isolate)
Experimental: (§1) Bacteria were grown overnight at 37 °C in Mueller-Hinton Broth (MHB; Sigma-Aldrich, St. Louis. MO, USA) in a shaking incubator and aliquoted into cryovials with a 50% glycerol solution in a 1:1 ratio. No additives were added to the MHB during the growth of bacterial isolates. Glycerol stocks were stored at −80 °C.
(§2) The antimicrobial activity of the putative AMPs was determined by a broth microdilution assay as described by the Clinical and Laboratory Standards Institute, with the published adaptations for testing of cationic peptides. Escherichia coli 25922 and Staphylococcus aureus 29213 isolates were purchased from the American Type Culture Collection (ATCC; Manassas, VA, USA). A human clinical isolate of Salmonella enterica serovar Enteritidis was provided by the BC Centre for Disease Control. Bacteria from stocks stored at −80 °C were streaked onto nonselective Columbia blood agar with 5% sheep blood (Oxoid) and incubated overnight at 37 °C. Next, 2–4 colonies were streaked onto a new agar plate to ensure uniform health of colonies used in the broth microdilution assay. Isolated colonies were suspended in MHB and the optical density was measured with a spectrophotometer to create an initial inoculum concentration of approximately 1 × 10^8 cfu/mL. The inoculum was diluted 1:250 to a final concentration of 2–8 × 10^5 cfu/mL, which was confirmed by performing a Total Viability Count (TVC). The TVC consisted of plating a 1:1000 dilution of the final inoculum on nonselective media and was also used to confirm the health and purity of the inoculum in each trial.
(§3) Lyophilized 80 µg peptide aliquots synthesized by GenScript (Piscataway, NJ, USA) were resuspended to 1.28 mg/mL with UltraPure water (Thermo Fisher Scientific, Waltham, MA, USA) and serially diluted in polypropylene 96-well microtiter plates (Greiner Bio-One #650261, Kremsmünster, Austria) from 128 down to 0.5 µg/mL. Two columns per plate were reserved for growth and sterility controls. Inoculum was added to the wells containing the peptide and the growth control. Plates were incubated for 20–24 h at 37 °C. The minimum inhibitory concentration (MIC) was determined as the lowest peptide concentration where there was no visible bacterial growth.

[2] = tested on: Escherichia coli ATCC 25922
Experimental: as §1, §2, §3

[3] = tested on: Staphylococcus aureus ATCC 29213
Experimental: as §1, §2, §3

[4] = broth microdilution in MHB, peptide 128 down to 0.5 µg/mL, 20–24 h at 37 °C, no visible growth, range of three independent experiments

Row | Molecule | MIC, Salmonella Enteritidis [1, 4] [µg/mL] | MIC, E. coli ATCC 25922 [2, 4] [µg/mL] | MIC, S. aureus ATCC 29213 [3, 4] [µg/mL] | MIC, Salmonella Enteritidis ([1]; serovar Enteritidis (human clinical isolate)) [µg/mL] | MIC, E. coli ATCC 25922 ([2]; ATCC 25922) [µg/mL] | MIC, S. aureus ATCC 29213 ([3]; ATCC 29213) [µg/mL]
1 | CC[C@H](C)[C@H](NC(=O)[C@H](CCCCN)NC(=O)[C@H](CC(=O)O)NC(=O)[C@H](CC(C)C)NC(=O)[C@@H](NC(=O)CNC(=O)[C@@H](NC(=O)[C@H](CO)NC(=O)[C@H](Cc1ccccc1)NC(=O)[C@H](CC(N)=O)NC(=O)[C@H](CCCCN)NC(=O)[C@@H](NC(=O)CNC(=O)[C@H](CCC(=O)O)NC(=O)[C@H](CCCCN)NC(=O)[C@@H](NC(=O)[C@@H](NC(=O)[C@@H](NC(=O)[C@H](Cc1c[nH]c2ccccc12)NC(=O)[C@H](CC(C)C)NC(=O)CN)[C@@H](C)O)[C@@H](C)O)[C@@H](C)CC)C(C)C)C(C)C)C(C)C)C(=O)N[C@@H](CCCNC(=N)N)C(=O)N[C@@H](CS)C(=O)N[C@@H](CCCCN)C(=O)N[C@H](C(=O)N[C@H](C(=O)NCC(=O)NCC(=O)N[C@@H](CS)C(=O)O)[C@@H](C)O)[C@@H](C)CC [PeNi14] (H-GLWTTIKEGVKNFSVGVLDKIRCKITGGC-OH; N-terminus and C-terminus assumed) | 32 (≈ 10.2 µM) | 4 to 8 | 16 to 32 |  |  | 
2 | CC[C@H](C)[C@H](NC(=O)[C@H](CO)NC(=O)[C@@H]1CCCN1C(=O)[C@H](CC(C)C)NC(=O)[C@@H](NC(=O)[C@H](CCCCN)NC(=O)[C@H](C)NC(=O)[C@H](C)NC(=O)[C@H](CC(C)C)NC(=O)CNC(=O)[C@H](C)NC(=O)[C@@H](NC(=O)[C@@H](NC(=O)[C@@H]1CCCN1C(=O)[C@H](CC(C)C)NC(=O)[C@@H](N)Cc1ccccc1)C(C)C)C(C)C)C(C)C)C(=O)N[C@H](C(=O)N[C@@H](CS)C(=O)N[C@@H](C)C(=O)N[C@H](C(=O)N[C@H](C(=O)N[C@@H](CCCCN)C(=O)N[C@@H](CCCCN)C(=O)N[C@@H](CS)C(=O)O)[C@@H](C)O)C(C)C)[C@@H](C)CC [RaCa15] (H-FLPVVAGLAAKVLPSIICAVTKKC-OH; N-terminus and C-terminus assumed) | > 128 | 8 to 16 | 4 to 8 |  |  | 
3 | CC(C)C[C@H](NC(=O)CN)C(=O)N[C@@H](CC(C)C)C(=O)NCC(=O)N[C@@H](CCCCN)C(=O)N[C@H](C(=O)N[C@@H](CC(C)C)C(=O)NCC(=O)N[C@H](C(=O)NCC(=O)N[C@@H](CCCCN)C(=O)N[C@@H](CCCCN)C(=O)N[C@H](C(=O)N[C@@H](CC(C)C)C(=O)N[C@@H](CS)C(=O)NCC(=O)N[C@H](C(=O)N[C@@H](CO)C(=O)NCC(=O)N[C@@H](CCCNC(=N)N)C(=O)N[C@@H](CS)C(=O)O)C(C)C)C(C)C)C(C)C)C(C)C [RaOm4] (H-GLLGKVLGVGKKVLCGVSGRC-OH; N-terminus and C-terminus assumed) | 32 (≈ 15.7 µM) | 4 to 8 | 64 to 128 |  |  | 
4 | CC[C@H](C)[C@H](NC(=O)[C@H](CO)NC(=O)[C@@H]1CCCN1C(=O)[C@H](CC(C)C)NC(=O)[C@@H](NC(=O)[C@H](CCCCN)NC(=O)[C@H](C)NC(=O)[C@H](C)NC(=O)[C@H](CC(C)C)NC(=O)CNC(=O)[C@H](C)NC(=O)[C@@H](NC(=O)[C@@H](NC(=O)[C@@H]1CCCN1C(=O)[C@H](CC(C)C)NC(=O)[C@H](Cc1ccccc1)NC(=O)[C@H](CCCNC(=N)N)NC(=O)[C@H](CCC(N)=O)NC(=O)[C@H](CCC(=O)O)NC(=O)[C@@H](N)CCC(=O)O)C(C)C)C(C)C)C(C)C)C(=O)N[C@H](C(=O)N[C@@H](CS)C(=O)N[C@@H](C)C(=O)N[C@H](C(=O)N[C@H](C(=O)N[C@@H](CCCCN)C(=O)N[C@@H](CCCCN)C(=O)N[C@@H](CS)C(=O)O)[C@@H](C)O)C(C)C)[C@@H](C)CC [RaSy2] (H-EEQRFLPVVAGLAAKVLPSIICAVTKKC-OH; N-terminus and C-terminus assumed) | > 128 | 64 (≈ 21.4 µM) | 64 to 128 |  |  | 
5 | AFVRILCYCCPRRIKRR [TeRu2, rAMPage-discovered AMP, Temnothorax rugatulus] | > 128 | 64 to 128 | 128 |  |  | 
6 | AGLQFPVGRIHRHLKTR [PeNi6] | > 128 | > 128 | > 128 |  |  | 
7 | ATAWKVPPGLQPIRPIRIRPLCGNDKS [PeNi16] | > 128 | > 128 | > 128 |  |  | 
8 | AVLSFVHKLFLNFLHVDTSKGKCRATLQ [TeRu3] | > 128 | > 128 | > 128 |  |  | 
9 | DNKWQNVHFHRSAVTGPTSFSFSHK [AnFl1] |  |  |  | > 128 | > 128 | > 128
10 | FIKTQVLKHLVAGVRVARGLDWKWR [CaCa2] | > 128 | 8 | 64 to 128 |  |  | 
11 | FILHAKKTRSAK [VeSi1] | > 128 | > 128 | > 128 |  |  | 
12 | FLPSSPWNEGTYVLKKLKS [PeNi15] | > 128 | > 128 | > 128 |  |  | 
13 | FPFPFGRR [RaSi2] | > 128 | > 128 | > 128 |  |  | 
14 | GAFVLWGPTPRPRRR [DiLo1] | > 128 | 128 | > 128 |  |  | 
15 | GAHKEVFKRDTALTKEAAKKAKK [ApMe2] | > 128 | > 128 | > 128 |  |  | 
16 | GFMDTAKNVAKNVAVTLLDNLKCKITKAC [OdMa13, rAMPage-discovered AMP, Odorrana margaretae] | > 128 | 64 to 128 | > 128 |  |  | 
17 | GIFGGLLKEGKKIACGLSGLC [OdTo3, rAMPage-discovered AMP, Odorrana tormota] | > 128 | 32 | > 128 |  |  | 
18 | GIFSLIKGAAK [LeBo1] | > 128 | > 128 | > 128 |  |  | 
19 | GIFSLIKGAAKVVAKGLG [PeNi3, rAMPage-discovered AMP, Pelophylax nigromaculatus] | 64 to 128 | 16 to 32 | 64 to 128 |  |  | 
20 | GIFSLIKGAAKVVAKGLGK [RaOm3] | 32 to 64 | 8 to 16 | 64 |  |  | 
21 | GILRLVTRRFRFSPTNLNRYTVARLVSGVP [BoAr6] | 64 | 32 | 64 to 128 |  |  | 
22 | GILRSLGWIQMPRSRRRHR [AnFl2] | 128 | 16 to 32 | > 128 |  |  | 
23 | GILSGLLGAGKKIVC [OdMa4] | 32 | 8 to 16 | > 128 |  |  | 
24 | GILSGLLGAGKKIVCGLSGMC [RaOm2, rAMPage-discovered AMP, Rana omeimontis] | > 128 | 64 to 128 | > 128 |  |  | 
